# Data taken from US20240358693A1, “METHODS OF TREATING PAIN” (Aisa Pharma, Inc., priority 2023, published 2024).
# Tested on: participants with SSc-RP
# Experiment: Scleroderma Health Assessment Questionnaire (SHAQ): disability indices and visual analog scales
# Type: in vivo, human
# Conditions: for SHAQ Alternative Disability Index, Mean / SHAQ Alternative Disability Index, Median / SHAQ Standard Disability Index, Mean / SHAQ Standard Disability Index, Median: Patients with Diagnosis of SSc
# Description: The standard, validated, patient reported outcome measures tool for SSc patients, the Scleroderma Health Assessment Questionnaire (SHAQ), will be used to assess the participant qualify of life. Details are attached in the Appendix. The participant quality of life will be scored, and a disability index calculated for each questionnaire completed by the patient at Screening and each in-clinic visit. The absolute change in participant quality of life from baseline to the end of each dosing period will be calculated similar to frequency data as before.
# The SHAQ includes a Raynaud's VAS, which will be reported at screening and each in-clinic visit. The absolute change in Raynaud-VAS, assessed by the participants response to the SHAQ question ‘In the past 7 days, how much have your Raynaud's interfered with your daily activities?’ at baseline and the end of each dosing period will be calculated similar to frequency data as before.
# The SHAQ is used to calculate a Disability Index to assess the participant qualify of life. The eight categories assessed by the Disability Index are 1) dressing and grooming, 2) arising, 3) eating, 4) walking, 5) hygiene, 6) reach, 7) grip, and 8) common daily activities. For each of these categories, patients report the amount of difficulty they have in performing two or three specific activities.
# There are four possible responses for the Disability Index questions: • Without any difficulty=0 • With some difficulty=1 • With much difficulty=2 • Unable to do=3. • The highest score reported by the patient for any component question of the eight categories determines the score for that category. • If a component question is left blank or the response is too ambiguous to assign a score, then the score for that category is determined by the remaining completed question(s). • If all component questions are blank or if more than one answer is given, then follow up with the respondent is required. • If the respondent's mark is between the response columns, then move it to the closest one. If it's directly between the two, move it to the higher one.
# Each of the disability items on the SHAQ has a companion aids/devices variable that is used to record what type(s) of assistance, if any, the participant uses for his/her usual activities. These variables (see below) are coded as follows: • 0=No assistance is needed. • 1=A special device is used by the patient in his/her usual activities. • 2=The patient usually needs help from another person. • 3=The patient usually needs BOTH a special device AND help from another person.
# The scoring variables and scoring rules permit the computation of two disability indices, the Standard Disability Index and the Alternative Disability Index.
# This question results in a new set of category scores that are computed by adjusting the score for each category, if necessary, based on the patient's use of an aid or device or assistance for that category. If either devices and/or help from another person are checked for a category, the score is set to “2”, unless the score is already “3” (i.e., scores of “0” or “1” are increased to “2”). For example, if the highest score for the dressing category is “1”, and the patient says they use a device for dressing, the computed category score would be “2”. The sum of the computed categories scores is then calculated and divided by the number of categories answered. This gives a score in the 0 to 3 range.
# The aid and device variables are not used to calculate the alternative disability index; it is calculated by adding the scores for each of the categories and dividing by the number of categories answered. This gives a score in the 0 to 3 range.
# The standard, validated, patient reported outcome measures tool for SSc patients, the SHAQ, was collected at the time points specified in the study schedules (FIG. 2 and FIGS. 4A and 4B) to assess the participant's quality of life. The SHAQ included a Raynaud's VAS that will also be reported separately.
# [1] = Day 12, mITT Part A, SSc patients, cilnidipine 10 mg and/or tadalafil 5 mg as in the arm
# [2] = Day 12, mITT Part A, SSc patients, cilnidipine 10 mg and/or tadalafil 5 mg as in the arm, subject 01-110 score excluded
# [3] = Day 12, mITT Part A, SSc patients, cilnidipine 20 mg (+ tadalafil 5 mg in the combination arm)
# [4] = In-Clinic Visit (Day 12), Cilnidipine 10 mg (N = 4), PP Population Part A
# [5] = In-Clinic Visit (Day 12), Cilnidipine 20 mg (N = 4), PP Population Part A
# [6] = In-Clinic Visit (Day 12), Pooled Cilnidipine 10 mg and Cilnidipine 10 mg + Tadalafil 5 mg (N = 9), PP Population Part A
smiles,measurement,setting,value
"COCCOC(=O)C1=C(C)NC(C)=C(C(=O)OC/C=C/c2ccccc2)C1c1cccc([N+](=O)[O-])c1 (centres unmarked) [Cilnidipine, cilnidipine]","SHAQ Visual Analogue Scale - Raynaud's, Change from Baseline, Mean",[1],0.167
same,"SHAQ Visual Analogue Scale - Raynaud's, Change from Baseline, Median",[1],−0.100
same,"SHAQ Visual Analogue Scale - Raynaud's, In-Clinic Visit (Day 12), Mean",[1],2.300
same,"SHAQ Visual Analogue Scale - Raynaud's, In-Clinic Visit (Day 12), Median",[1],2.600
same,"SHAQ Visual Analogue Scale - Raynaud's, Percent Change from Baseline, Mean",[1],11.36%
same,"SHAQ Visual Analogue Scale - Raynaud's, Percent Change from Baseline, Median",[1],−2.27%
same,"SHAQ Visual Analogue Scale - Breathing Problems, Change from Baseline, Mean",[2],−0.400
same,"SHAQ Visual Analogue Scale - Breathing Problems, Change from Baseline, Median",[2],0.000
same,"SHAQ Visual Analogue Scale - Breathing Problems, In-Clinic Visit (Day 12), Mean",[2],2.100
same,"SHAQ Visual Analogue Scale - Breathing Problems, In-Clinic Visit (Day 12), Median",[2],0.000
same,"SHAQ Visual Analogue Scale - Breathing Problems, Percent Change from Baseline, Mean",[2],−16.00%
same,"SHAQ Visual Analogue Scale - Breathing Problems, Percent Change from Baseline, Median",[2],−16.00%
same,"SHAQ Alternative Disability Index, Change from Baseline, Mean",[3],−0.083
same,"SHAQ Alternative Disability Index, Change from Baseline, Median",[3],−0.125
same,"SHAQ Alternative Disability Index, In-Clinic Visit (Day 12), Mean",[3],0.125
same,"SHAQ Alternative Disability Index, In-Clinic Visit (Day 12), Median",[3],0.125
same,"SHAQ Alternative Disability Index, Percent Change from Baseline, Mean",[3],−41.67%
same,"SHAQ Alternative Disability Index, Percent Change from Baseline, Median",[3],−41.67%
same,"SHAQ Visual Analogue Scale - Breathing Problems, Change from Baseline, Mean",[3],−0.833
same,"SHAQ Visual Analogue Scale - Breathing Problems, Change from Baseline, Median",[3],−0.800
same,"SHAQ Visual Analogue Scale - Breathing Problems, In-Clinic Visit (Day 12), Mean",[3],0.300
same,"SHAQ Visual Analogue Scale - Breathing Problems, In-Clinic Visit (Day 12), Median",[3],0.400
same,"SHAQ Visual Analogue Scale - Breathing Problems, Percent Change from Baseline, Mean",[3],−5.56%
same,"SHAQ Visual Analogue Scale - Breathing Problems, Percent Change from Baseline, Median",[3],−66.67%
same,"SHAQ Visual Analogue Scale - Finger Ulcers, Change from Baseline, Mean",[3],−0.933
same,"SHAQ Visual Analogue Scale - Finger Ulcers, Change from Baseline, Median",[3],0.000
same,"SHAQ Visual Analogue Scale - Finger Ulcers, In-Clinic Visit (Day 12), Mean",[3],0.867
same,"SHAQ Visual Analogue Scale - Finger Ulcers, In-Clinic Visit (Day 12), Median",[3],0.700
same,"SHAQ Visual Analogue Scale - Finger Ulcers, Percent Change from Baseline, Mean",[3],35.29%
same,"SHAQ Visual Analogue Scale - Finger Ulcers, Percent Change from Baseline, Median",[3],35.29%
same,"SHAQ Visual Analogue Scale - Intestinal Problems, Change from Baseline, Mean",[3],0.300
same,"SHAQ Visual Analogue Scale - Intestinal Problems, Change from Baseline, Median",[3],0.300
same,"SHAQ Visual Analogue Scale - Intestinal Problems, In-Clinic Visit (Day 12), Median",[3],1.300
same,"SHAQ Visual Analogue Scale - Intestinal Problems, Percent Change from Baseline, Mean",[3],35.00%
same,"SHAQ Visual Analogue Scale - Intestinal Problems, Percent Change from Baseline, Median",[3],35.00%
same,"SHAQ Visual Analogue Scale - Overall Disease Severity, Change from Baseline, Median",[3],−1.600
same,"SHAQ Visual Analogue Scale - Overall Disease Severity, In-Clinic Visit (Day 12), Mean",[3],1.033
same,"SHAQ Visual Analogue Scale - Overall Disease Severity, In-Clinic Visit (Day 12), Median",[3],1.200
same,"SHAQ Visual Analogue Scale - Overall Disease Severity, Percent Change from Baseline, Median",[3],−60.00%
same,"SHAQ Visual Analogue Scale - Pain, Change from Baseline, Mean",[3],−1.100
same,"SHAQ Visual Analogue Scale - Pain, Change from Baseline, Median",[3],−0.800
same,"SHAQ Visual Analogue Scale - Pain, In-Clinic Visit (Day 12), Mean",[3],1.067
same,"SHAQ Visual Analogue Scale - Pain, In-Clinic Visit (Day 12), Median",[3],0.700
same,"SHAQ Visual Analogue Scale - Pain, Percent Change from Baseline, Mean",[3],−52.56%
same,"SHAQ Visual Analogue Scale - Pain, Percent Change from Baseline, Median",[3],−53.33%
same,"SHAQ Visual Analogue Scale - Raynaud's, Change from Baseline, Median",[3],−1.100
same,"SHAQ Visual Analogue Scale - Raynaud's, In-Clinic Visit (Day 12), Mean",[3],1.033
same,"SHAQ Visual Analogue Scale - Raynaud's, In-Clinic Visit (Day 12), Median",[3],1.100
same,"SHAQ Visual Analogue Scale - Raynaud's, Percent Change from Baseline, Median",[3],−44.00%
same,"SHAQ Alternative Disability Index, Mean",[4],0.563
same,"SHAQ Alternative Disability Index, Median",[4],0.500
same,"SHAQ Standard Disability Index, Mean",[4],0.656
same,"SHAQ Standard Disability Index, Median",[4],0.563
same,"SHAQ Alternative Disability Index, Mean",[5],0.219
same,"SHAQ Alternative Disability Index, Median",[5],0.188
same,"SHAQ Standard Disability Index, Mean",[5],0.281
same,"SHAQ Standard Disability Index, Median",[5],0.188
same,"SHAQ Visual Analogue Scale - Finger Ulcers, Mean",[6],0.389
same,"SHAQ Visual Analogue Scale - Finger Ulcers, Median",[6],0.000
same,"SHAQ Visual Analogue Scale - Intestinal Problems, Mean",[6],1.217
same,"SHAQ Visual Analogue Scale - Intestinal Problems, Median",[6],0.700
same,"SHAQ Visual Analogue Scale - Overall Disease Severity, Mean",[6],2.439
